Source: publication PMC12217461 (Antimicrobial Agents and Chemotherapy, 2025)

Tests used:
Assay type in all cases: cell-based
[1] = test system: Klebsiella pneumoniae Kp 5 IMP; experiment: microbe, parasite or virus in culture; conditions: KP5IMP, read-out: Minimal inhibitory concentration
Experimental: (§1) Most isolates and their respective β-lactamase content were characterized by whole-genome sequencing.
(§2) To assess the inhibitory potency of XER, susceptibility testing was performed by broth microdilution method, determining the minimal inhibitory concentrations (MICs) of different antibiotics or antibiotic plus β-lactamase inhibitor combinations, including cefepime (FEP), imipenem (IPM), meropenem (MEM), and their combinations with XER (FEP-XER, IPM-XER, and MEM-XER). All data obtained with XER-based combinations were compared with data with TAN-based combinations, FEP-TAN, IPM-TAN, and MEM-TAN ([16]). FEP was purchased from Sigma-Aldrich (Saint-Louis, USA), whereas MEM was from HuiChem (Shanghai, China). […] MICs were determined in triplicate in cation-adjusted Mueller-Hinton (MH) broth (Bio-Rad, Marnes-la-Coquette, France) according to the CLSI guidelines ([53]). The results were interpreted according to the decrease in MIC value for the same antibiotic or combination of the corresponding recombinant strain producing the MBL enzyme. […] In a recent phase I clinical evaluation, XER was combined with cefiderocol. However, as this latter β-lactam substrate is known to be poorly hydrolyzed by IMP enzymes, it was not considered for the evaluation of XER inhibitory activity in this study. Instead, carbapenems were used as a substrate to evaluate the β-lactamase IMP activity in the presence or absence of XER and TAN, as it was deemed more specific for the IMP carbapenemase activity.

[2] = test system: Pseudomonas aeruginosa PA15; experiment: microbe, parasite or virus in culture; conditions: IMP-19, TAN/XER fixed at 4 µg/mL, XER 8 µg/mL in MEM-XER, read-out: Minimal inhibitory concentration
Experimental: as §1, §2

[3] = test system: C. freundii SMART 315; experiment: microbe, parasite or virus in culture; conditions: Citrobacter freundii, SMART315; IMP-4, CTX-M-9; TAN/XER fixed at 4 µg/mL, XER 8 µg/mL in MEM-XER; read-out: Minimal inhibitory concentration
Experimental: as §1, §2

[4] = test system: Escherichia coli AZ 1677; experiment: microbe, parasite or virus in culture; conditions: AZ1677, IMP-59, TEM-1, TAN/XER fixed at 4 µg/mL, XER 8 µg/mL in MEM-XER, read-out: Minimal inhibitory concentration
Experimental: as §1, §2

[5] = test system: Escherichia coli SMART 1735; experiment: microbe, parasite or virus in culture; conditions: SMART1735, IMP-59, TEM-1, TAN/XER fixed at 4 µg/mL, XER 8 µg/mL in MEM-XER, read-out: Minimal inhibitory concentration
Experimental: as §1, §2

[6] = test system: Pseudomonas aeruginosa C7; experiment: microbe, parasite or virus in culture; conditions: IMP-7, TAN/XER fixed at 4 µg/mL, XER 8 µg/mL in MEM-XER, read-out: Minimal inhibitory concentration
Experimental: as §1, §2

[7] = test system: Citrobacter freundii SMART 958; experiment: microbe, parasite or virus in culture; conditions: SMART958, IMP-1, OXA-142, TAN/XER fixed at 4 µg/mL, XER 8 µg/mL in MEM-XER, read-out: Minimal inhibitory concentration
Experimental: as §1, §2

[8] = test system: Klebsiella pneumoniae SMART 875; experiment: microbe, parasite or virus in culture; conditions: SMART875, IMP-26, CTX-M-15, TEM-1 like, TAN/XER fixed at 4 µg/mL, XER 8 µg/mL in MEM-XER, read-out: Minimal inhibitory concentration
Experimental: as §1, §2

[9] = test system: Serratia marcescens SMART 2558; experiment: microbe, parasite or virus in culture; conditions: SMART2558, IMP-8, CTX-M-3, TAN/XER fixed at 4 µg/mL, XER 8 µg/mL in MEM-XER, read-out: Minimal inhibitory concentration
Experimental: as §1, §2

[10] = test system: Enterobacter hormaechei subsp. oharae SMART 1260; experiment: microbe, parasite or virus in culture; conditions: read-out: Minimal inhibitory concentration
Experimental: as §1, §2

[11] = test system: Serratia marcescens SM1; experiment: microbe, parasite or virus in culture; conditions: IMP-11, TAN/XER fixed at 4 µg/mL, XER 8 µg/mL in MEM-XER, read-out: Minimal inhibitory concentration
Experimental: as §1, §2

[12] = test system: Klebsiella pneumoniae SMART 1137; experiment: microbe, parasite or virus in culture; conditions: SMART1137, read-out: Minimal inhibitory concentration
Experimental: as §1, §2

[13] = test system: Pseudomonas aeruginosa PA13; experiment: microbe, parasite or virus in culture; conditions: IMP-15, TAN/XER fixed at 4 µg/mL, XER 8 µg/mL in MEM-XER, read-out: Minimal inhibitory concentration
Experimental: as §1, §2

[14] = test system: Pseudomonas aeruginosa PA16; experiment: microbe, parasite or virus in culture; conditions: IMP-29, TAN/XER fixed at 4 µg/mL, XER 8 µg/mL in MEM-XER, read-out: Minimal inhibitory concentration
Experimental: as §1, §2

[15] = test system: Pseudomonas aeruginosa PA12; experiment: microbe, parasite or virus in culture; conditions: IMP-13, TAN/XER fixed at 4 µg/mL, XER 8 µg/mL in MEM-XER, read-out: Minimal inhibitory concentration
Experimental: as §1, §2

[16] = test system: E. coli NDM-1* (S262G); experiment: MIC broth microdilution, recombinant E. coli; conditions: Escherichia coli, TAN/XER fixed at 4 µg/mL, XER 8 µg/mL in MEM-XER, read-out: Minimal inhibitory concentration
Description: (§3) Genes encoding different acquired IMP-like enzymes suspected to be resistant to XER (blaIMP-6, blaIMP-7, blaIMP-10, blaIMP-14, blaIMP-26, blaIMP-34, and blaIMP-59) were amplified by PCR, and corresponding amplicons were cloned into plasmid pUCP24 and expressed in E. coli TOP10. The following recombinant E. coli strains producing IMP-1, IMP-4, IMP-19, and NDM-1 were used from a previous study ([16]). […] For that purpose, a list of primers was designed and provided as Table S1. […] The nomenclature used in this study was according to the BBL sequence numbering ([52]).
as §2

[17] = test system: E. coli IMP-1; experiment: MIC broth microdilution, recombinant E. coli; conditions: Escherichia coli, IMP1; IMP-1-like; TAN/XER fixed at 4 µg/mL, XER 8 µg/mL in MEM-XER; read-out: Minimal inhibitory concentration
Description: as §3, §2

[18] = test system: E. coli TOP10; experiment: microbe, parasite or virus in culture; conditions: Escherichia coli, no MBL, TAN/XER fixed at 4 µg/mL, XER 8 µg/mL in MEM-XER, read-out: Minimal inhibitory concentration
Description: as §3, §2

Row | SMILES | MIC [1] [µg/mL] | MIC [2] [µg/mL] | MIC [3] [µg/mL] | MIC [4] [µg/mL] | MIC [5] [µg/mL] | MIC [6] [µg/mL] | MIC [7] [µg/mL] | MIC [8] [µg/mL] | MIC [9] [µg/mL] | MIC [10] [µg/mL] | MIC [11] [µg/mL] | MIC [12] [µg/mL] | MIC [13] [µg/mL] | MIC [14] [µg/mL] | MIC [15] [µg/mL] | MIC [16] [µg/mL] | MIC [17] [µg/mL] | MIC [18] [µg/mL]
1 | CO/N=C(\C(=O)N[C@@H]1C(=O)N2C(C(=O)[O-])=C(C[N+]3(C)CCCC3)CS[C@H]12)c1csc(N)n1 [FEP, cefepime] | 256 | > 256 | 16 | 8 | 8 | > 256 | 32 | 64 | 32 | 32 | 4 | > 256 | 128 | 16 | 128 | 1 | 32 | ≤ 0.25
2 | C[C@@H](O)[C@H]1C(=O)N2C(C(=O)O)=C(SCCN=CN)C[C@H]12 [IPM, imipenem] | ≤ 0.25 | 256 | ≤ 0.25 | ≤ 0.25 | ≤ 0.25 | 128 | 0.5 | ≤ 0.25 | ≤ 0.25 | ≤ 0.25 | ≤ 0.25 | 2 | 256 | 16 | 8 | 0.25 | 4 | ≤ 0.25
3 | C[C@@H](O)[C@H]1C(=O)N2C(C(=O)O)=C(S[C@@H]3CN[C@H](C(=O)N(C)C)C3)[C@H](C)[C@H]12 [MEM, meropenem] | 0.5 | 64 | 2 | 0.5 | 0.5 | 256 | 4 | 0.125 | 0.25 | 1 | 2 | 128 | 64 | 32 | 16 | 32 | 8 | ≤ 0.25
